Experimental findings from patent publication US8063101B2, “Carotenoid analogs and derivatives for the prevention of platelet aggregation” (Cardax Pharmaceuticals, Inc., priority 2007, dated 2011) are described below.

Where two headings read alike, the source gives them in different places.

Data set [1] is described as follows: Aqueous dispersibility. It counts as physicochemical. The conditions noted are these: USP-purified water; no heat, detergents, co-solvents. From the text: In some embodiments, highly water-dispersible C40 carotenoid derivatives may include natural source RRR-lutein (β,ε-carotene-3,3′-diol) derivatives. Derivatives may be synthesized by esterification with inorganic phosphate and succinic acid, respectively, and subsequently converted to the sodium salts. Deep orange, evenly colored aqueous suspensions were obtained after addition of these derivatives to USP-purified water. […] Aqueous suspensions may be obtained without the addition of heat, detergents, co-solvents, or other additives.
Disodium disuccinate astaxanthin (DDA; see FIG. 1B) was synthesized from commercially available crystalline astaxanthin (Buckton Scott, India) as previously described in Frey, et al. (“The efficient synthesis of disodium disuccinate astaxanthin (Cardax).” Org Process Res Dev 8: 796-801, 2004.). The final product purity was 97% (as area under the curve) by HPLC analysis. DDA was dissolved directly in sterile-filtered deionized water. The maximum aqueous dispersibility of DDA is approximately 10 mM, or 8.64 mg/ml. Vehicle consisted of isotonic sterile 0.9% NaCl solution.

The conditions of data set [2]: rat, in vivo. As to the method: In a another experiment, all-trans 3S,3′S-astaxanthin diester diglycinate dihydrochloride salt (hereinafter “ADG”); all-trans 3S,3′S-astaxanthin diester disarcosinate dihydrochloride salt (hereinafter “ADSa”); and ADL were administered orally to separate rats as a aqueous suspension containing 0.5% carboxymethylcellulose. A single dose that included 40 mg/kg of the carotenoid derivative was administered to each rat. (See FIG. 20, PK Study #CXPK07202). For each carotenoid derivative given to the rats in this example, the amount of all astaxanthin isomers, the amount of trans astaxanthin isomers, and the amount of cis astaxanthin isomers in the plasma was determined at predefined time intervals for 3 days (72 hours).
In another experiment, ADG; ADSa; and ADL were administered to separate rats intravenously as an aqueous solution. A single dose that included 5 mg/kg of the carotenoid derivative was administered to each rat. (See FIG. 20, PK Study #CXPK07202). For each carotenoid derivative given to the rats in this example, the amount of all astaxanthin isomers, the amount of trans astaxanthin isomers, and the amount of cis astaxanthin isomers in the plasma was determined at predefined time intervals for 3 days (72 hours).

Data set [3] can be described thus: Dog PK of astaxanthin derivatives (CXPK07402, 07404, 07405, 07406). As to the method: In another experiment, ADL was administered to non-naïve beagle dogs orally (as an aqueous suspension containing 0.5% carboxymethylcellulose) and intravenously as an aqueous solution. Oral doses that included 10 mg/kg of the carotenoid derivative, 100 mg/kg of the carotenoid derivative, and 500 mg/kg of the carotenoid derivative were administered to each dog. The intravenous dosage was 5 mg/kg. (See FIG. 20, PK Study #CXPK07402). For each carotenoid derivative given to the dogs in this example, the amount of all astaxanthin isomers, the amount of trans astaxanthin isomers, and the amount of cis astaxanthin isomers in the plasma was determined at predefined time intervals for 3 days (72 hours).
In another experiment, ADL was administered to naïve beagle dogs orally (as an aqueous suspension containing 0.5% carboxymethylcellulose) twice a day for six days. Each oral dose included 75 mg/kg of the carotenoid derivative. (See FIG. 20, PK Study #CXPK07404). For each carotenoid derivative given to the dogs in this example, the amount of all astaxanthin isomers, the amount of trans astaxanthin isomers, and the amount of cis astaxanthin isomers in the plasma was determined at predefined time intervals for 6 days.
In another experiment, all-trans 3S,3′ S-astaxanthin diester di-beta-alanine dihydrochloride salt (hereinafter “ADA”); ADG; ADL; ADSa; and ADS were administered orally to separate non-naïve dogs as a aqueous suspension containing 0.5% carboxymethylcellulose. A single dose that included 20 mg/kg of the carotenoid derivative was administered to each dog. (See FIG. 20, PK Study #CXPK07405). For each carotenoid derivative given to the dogs in this example, the amount of all astaxanthin isomers was determined at predefined time intervals for 3 days (72 hours).
In another experiment, ADG or ADSa was administered to non-naïve beagle dogs orally (as an aqueous suspension containing 0.5% carboxymethylcellulose). Oral doses included either 50 mg/kg of the carotenoid derivative or 100 mg/kg of the carotenoid derivative. (See FIG. 20, PK Study #CXPK07406). For each carotenoid derivative given to the dogs in this example, the amount of all astaxanthin isomers, the amount of trans astaxanthin isomers, and the amount of cis astaxanthin isomers in the plasma was determined at predefined time intervals for 3 days (72 hours).

On the set-up of data set [4]: species or system rats. As to conditions: in vivo, po, 500 mg/kg. As to the method: In one experiment, astaxanthin; all-trans 3S,3'S-astaxanthin diester disuccinate disodium salt (hereinafter “ADS”); and all-trans 3S,3'S-astaxanthin diester […] tetrahydrochloride salt (hereinafter “ADL”) were administered orally to separate rats as a lipid suspension. A single dose that included 500 mg/kg of the carotenoid/carotenoid derivative was administered to each rat. (See FIG. 20, PK Study #CXPK07201). Plasma from each of the rats was collected 4 hours after ingestion and 8 hours after ingestion and all samples were analyzed by high performance liquid chromatography (“HPLC”). HPLC analysis was used to detect the presence of free underivatized carotenoid (e.g., in this example, astaxanthin) in the plasma. HPLC chromatograms were collected for each plasma sample taken.

Data set [5] has as its system vascular platelets. The data set is described as follows: Platelet-derived nitric oxide (NO) release after IP3 stimulation, NO nanosensor. The data set is classed as cell-based, Wistar-Kyoto (WKY) rats. As to the method: Wistar-Kyoto (WKY) rats were anaesthetized and blood was collected directly from the heart using a 10 mL syringe that contained 3.8% sodium citrate (9:1, v v^−1). […] The platelet rich plasma (PRP) was then removed by aspiration. […] The number of platelets was counted and adjusted to 3.5×10^8 per mL with Tyrode-HEPES buffer. The platelets were incubated in an aggregometer with a NO nanosensor (working electrode) placed in the platelet suspension. […] All measurements of NO release were conducted in Hank's balanced salt solution (HBSS) at 37° C. The sensor operated with a three-electrode system: nanosensor (working electrode), saturated calomel electrode (reference electrode), and platinum wire (counter electrode, 0.5 mm diameter). The three electrodes were connected to a potentiostat/galvanostat PAR273. The baseline was stabilized after ˜20 s. With a nanoinjector, the test compounds were injected onto the surface of the cells following solubilization in buffer. In experiments with multiple compounds, the compounds were injected simultaneously. […] Data were acquired with the use of custom software. Amperograms (current vs. time curves) were recorded with a Guniry FAS1 Femtostat (Warminster, Pa.). The nanosensor for NO was calibrated using saturated solution (concentration 1.82 mM verified with the coulometric method). […] The data were presented as mean±S.D. for each of the triplicate measurements. The data (calculation and plotting) were transferred to Microcal Origin Software (OriginLab Corp., Northampton, Mass.). […] The NO concentration was calculated using current responses obtained from standard NO solution (prepared from […] stock solution, saturated aqueous NO solution).

For data set [6], the system named is human umbilical vein endothelial cells (HUVEC). The data set is described as follows: Calcium ionophore (CaI)-stimulated total nitric oxide release from HUVEC. The data set is classed as cell-based. As to conditions: 3S,3′S-AST 5.0 μM, clopidogrel 1.0 μM, alone or in combination; FIG. 5. As to the method:
(§1) Human umbilical vein endothelial cells (HUVECs) were isolated into primary cultures from white female donors by Clonetics (San Diego, Calif.), essentially as described (Mason et al. 2005). All donors were reported to be healthy and none had pregnancy or prenatal complications. All measurements were recorded in vitro using a sensitive porphyrinic probe, also as previously described. HUVEC cells were grown in Ham's F12K medium with 2 mM L-glutamine adjusted to contain 1.5 g/L sodium bicarbonate and supplemented with 0.1 mg/mL heparin and 0.03-0.05 mg/mL endothelial cell growth supplement (ECGS) plus 10% fetal bovine serum. The HUVEC cells were kept in an atmosphere of elevated CO2 concentration (5%).
All measurements of NO release were conducted in Hank's balanced salt solution (HBSS) at 37° C. The sensor operated with a three-electrode system: nanosensor (working electrode), saturated calomel electrode (reference electrode), and platinum wire (counter electrode, 0.5 mm diameter). The three electrodes were connected to a potentiostat/galvanostat PAR273. […] The current (amps) proportional to the NO concentration was measured with the sensor, which operated in amperometric mode at a constant potential of 0.63 V. Data were acquired with the use of custom software. Amperograms (current vs. time curves) were recorded with a Guniry FAS1 Femtostat (Warminster, Pa.).

Data set [7] has the same test system. The data set is described as follows: Calcium ionophore (CaI)-stimulated total peroxynitrite release from HUVEC. It counts as cell-based. The conditions noted are these: 3S,3′S-AST 5.0 μM, clopidogrel 1.0 μM, alone or in combination; FIG. 6. As to the method:
as §1

For data set [8] the test system is unchanged. The data set is described as follows: CaI-stimulated NO/OONO- release ratio from HUVEC. As to conditions: 3S,3′S-AST 5.0 μM, clopidogrel 1.0 μM, alone or in combination; FIG. 7. It counts as cell-based. As to the method:
as §1

`CC(C=CC=C(C)C=CC1=C(C)CC(OC(=O)CCC(=O)[O-])CC1(C)C)=CC=CC=C(C)C=CC=C(C)C=CC1C(C)=CC(OC(=O)CCC(=O)[O-])CC1(C)C.[Na+].[Na+]` (centres unmarked): the aqueous dispersibility in data set [1] came out at 2.85 mg/mL.

Turning to `CC1=C(/C=C/C(C)=C/C=C/C(C)=C/C=C/C=C(C)/C=C/C=C(C)/C=C/C2=C(C)C(=O)[C@@H](OC(=O)CN)CC2(C)C)C(C)(C)C[C@H](OC(=O)CN)C1=O.Cl.Cl` (relative stereo) [ADG, all-trans 3S,3′S-astaxanthin diester diglycinate dihydrochloride salt], the “absorption and metabolism to astaxanthin in plasma” value (“absorption and metabolism” for short) was “absorbed by the rats and metabolized” in data set [2] (iv, 5 mg/kg); “absorbed by the rats and metabolized” in data set [2] (po, 40 mg/kg); “absorbed by the dogs and metabolized” in data set [3] (dog, in vivo, po, 20 mg/kg).

Turning to `CC1=C(/C=C/C(C)=C/C=C/C(C)=C/C=C/C=C(C)/C=C/C=C(C)/C=C/C2=C(C)C(=O)[C@@H](OC(=O)[C@@H](N)CCCCN)CC2(C)C)C(C)(C)C[C@H](OC(=O)[C@@H](N)CCCCN)C1=O.Cl.Cl.Cl.Cl` (relative stereo) [ADL, all-trans 3S,3′S-astaxanthin diester dilysinate tetrahydrochloride salt], the “absorption and metabolism” value in data set [2] (iv, 5 mg/kg) is “absorbed by the rats and metabolized”; in data set [2] (po, 40 mg/kg), “absorbed by the rats and metabolized”; in data set [3] (dog, in vivo, po, 20 mg/kg), “absorbed by the dogs and metabolized”; in data set [3] (dog, in vivo, po, 75 mg/kg), “absorbed by the dogs and metabolized”. Further, the “free astaxanthin in rat plasma” value in data set [4] is reported as “significant amount”.

With `CC1=C(/C=C/C(C)=C/C=C/C(C)=C/C=C/C=C(C)/C=C/C=C(C)/C=C/C2=C(C)C(=O)[C@@H](OC(=O)CCC(=O)[O-])CC2(C)C)C(C)(C)C[C@H](OC(=O)CCC(=O)[O-])C1=O.[Na+].[Na+]` (relative stereo) [ADS, all-trans 3S,3′S-astaxanthin diester disuccinate disodium salt], in data set [4], the “free astaxanthin in rat plasma” value is given as “significant amount”. Moreover, the “absorption and metabolism” value in data set [3] (dog, in vivo, po, 20 mg/kg) is “absorbed by the dogs and metabolized”.

In the case of `CC(C=CC=C(C)C=CC1=C(C)C(=O)C(OC(=O)CCN)CC1(C)C)=CC=CC=C(C)C=CC=C(C)C=CC1=C(C)C(=O)C(OC(=O)CCN)CC1(C)C.Cl.Cl` (stereo not drawn) [ADA, all-trans 3S,3′ S-astaxanthin diester di-beta-alanine dihydrochloride salt], the “absorption and metabolism” value in data set [3] (non-naïve dogs, single oral 20 mg/kg) is “absorbed by the dogs and metabolized”.

For the compound `COC(=O)[C@H](c1ccccc1Cl)N1CCc2sccc2C1` [clopidogrel, reference compound], the “total NO release from vascular platelets” value in data set [5] (IP3 stimulation, homochiral astaxanthin 5.0 μM, clopidogrel 1.0 μM, controls 6.6±0.3, mean±S.D.) is reported as 10.2±0.4 molecules NO×10^6/platelet. Also, the “effect on CaI-stimulated total nitric oxide release from HUVEC” value in data set [6] is “did not significantly change”. Further, the “effect on CaI-stimulated total peroxynitrite (OONO−) release from HUVEC” value in data set [7] is “did not significantly change”. For the same compound, the “effect on CaI-stimulated NO/OONO− release ratio from HUVEC” value in data set [8] is “did not significantly change”.

Consider `CCC(C)(C)C(=O)O[C@H]1C[C@@H](C)C=C2C=C[C@H](C)[C@H](CC[C@@H]3C[C@@H](O)CC(=O)O3)[C@H]21` [simvastatin, reference compound], for which the “effect on platelet-derived NO release” value in data set [5] (1.0 μM, IP3 1.0 μM, FIG. 11) is recorded as “no effect”.
